{
  "source": "patent US20140047570A1",
  "about": "“ANIMAL MODEL OF HUMAN CANCER AND METHODS OF USE” (H. LEE MOFFITT CANCER CENTER AND RESEARCH INSTITUTE, INC., priority 2011, published 2014)",
  "system": "liver tumor of human pancreatic cancer",
  "experiment": "Diffusion MRI analysis of tumor response to drug treatment in vivo (liver xenograft)",
  "conditions": "human pancreatic cancer tumor implanted in mouse liver; intraperitoneally 1 mg/kg/d; before vs 24 hours after initiation of treatment; FIG. 4C",
  "source_text": "FIGS. 4A-D show MRI analysis to assess tumor response to drug treatment in vivo. To evaluate tumor response to treatment in vivo in addition to US imaging technologies such as MRI that utilizes anatomical MRI, diffusion MRI, spectroscopy and Dynamic Contrast Enhanced (DCE) MRI can be used. Of these, diffusion, spectroscopy and DCE show great promise in determining early response to drug treatment, even before changes in tumor volume are observed. Anatomical and diffusion MRI techniques were used on the same liver tumor of human pancreatic cancer before (FIG. 4A) and 24 hours after (FIG. 4B) the initiation of gemcitabine (intraperitoneally 1 mg/kg/d) treatment. […] Laparoscopy or laparotomy can be used to assess tumor growth and to harvest tumor cells in liver (FIG. 4D).",
  "data": [
    {"compound": "Nc1ccn([C@@H]2O[C@H](CO)[C@@H](O)C2(F)F)c(=O)n1", "note": "[gemcitabine]", "values": [
      {"measurement": "tumor water diffusion by diffusion MRI (early response to drug treatment)", "value": "right shift in tumor water diffusion"}
    ]}
  ]
}
